Reference: paper PMC8371902, “Phase 1 study of M2698, a p70S6K/AKT dual inhibitor, in patients with advanced cancer” (Journal of Hematology & Oncology, 2021)

Legend:
[1] = Plasma pharmacokinetics of M2698, non-compartmental; assay type: in vivo, human
Procedure: Plasma PK parameters on days 1 and 15 were calculated using non-compartmental methods.

[2] = Food effect on M2698 pharmacokinetics (fed vs fasted, single 240 mg dose); assay type: in vivo, human
Procedure: Food effect was analyzed using an analysis of variance (performed on natural log-transformed values of area under the plasma concentration-time curve from time zero to infinity (AUC0-∞) and maximum plasma concentration (Cmax) including sequence, period, and fasting/fed condition as effect).
Two single doses of 240 mg M2698 were administered 7 days apart (fed then fasted states or vice versa) to assess any effect of food on pharmacokinetics; these patients then continued treatment with either 240 mg/day or 320 mg/day M2698 as part of the dose expansion cohort. (240 mg, n=7; 320 mg, n=5)
^*Fed vs fasting following single dose of 240 mg M2698. Main analysis performed on natural log-transformed values of AUC0-∞ and Cmax including sequence, period and fasting/fed condition as effect. For one of the eight evaluable patients, no AUC under fed conditions was determined.

[3] = system: patients with advanced metastatic cancer; assay: Association between PK and safety (electrocardiogram ∆QTcF, fasting glucose); assay type: in vivo, human
[4] = in vivo
Text: (§1) A monotherapy population PK model was developed, consisting of a two-compartment model with four absorption transit compartments and first-order elimination (Additional file 1: Table S5).

[5] = set-up: method as in PMID 27186432; details: preclinical studies ref 21; cited from earlier work
[6] = system: phospho-S6 (pS6) in peripheral blood mononuclear cells; assay: pS6 in PBMCs by flow cytometry, PK/PD Emax model
Procedure: Pharmacodynamic biomarker analysis consisted of measuring levels of phospho-S6 (pS6) by flow cytometry in peripheral blood mononuclear cells (PBMCs) collected on cycle 1, days 1 and 15 at predose, 2, 4, and 8 h, and at predose on cycles ≥ 2, days 1, 8 and 15; and by immunohistochemistry in tumor biopsies obtained at baseline and on treatment (cycle 2, day 1; from the same tumor when possible).

[7] = Monotherapy population PK model (two-compartment); details: in vivo
Text: as §1

[8] = day 15, monotherapy 110 mg, n=3
[9] = day 15, monotherapy 160 mg, n=5
[10] = day 15, monotherapy 200 mg, n=3
[11] = day 15, monotherapy 240 mg, n=7
[12] = day 15, monotherapy 320 mg, n=6
[13] = day 15, monotherapy 380 mg, n=2
[14] = Fasted, single dose of 240 mg, n=8

NC(=O)c1cccc2c(N[C@H](CN3CCC3)c3ccc(Cl)c(C(F)(F)F)c3)ncnc12 [M2698]
AUC0–τ, Geo mean (GeoCV%) ([1]; day 15, monotherapy 60 mg, n=5): 10,000 (47.7) ng∙h/mL
Accumulation ratio (Cmax), Geo mean (GeoCV%) ([1]; day 15, monotherapy 60 mg, n=5): 3.03 (60.4)
Cmax, GeoMean (GeoCV%) ([1]; day 15, monotherapy 60 mg, n=5): 566 (48.5) ng/mL
tmax, median (range) ([1]; day 15, monotherapy 60 mg, n=5): 5.07 (3.03–7.62) hours
AUC0–τ, Geo mean (GeoCV%) ([1]; day 15, monotherapy 75 mg, n=4): 9440 (39.6) ng∙h/mL
Accumulation ratio (Cmax), Geo mean (GeoCV%) ([1]; day 15, monotherapy 75 mg, n=4): 3.02 (3.2)
Cmax, GeoMean (GeoCV%) ([1]; day 15, monotherapy 75 mg, n=4): 533 (47.5) ng/mL
tmax, median (range) ([1]; day 15, monotherapy 75 mg, n=4): 4.05 (4.03–5.12) hours
AUC0–τ, Geo mean (GeoCV%) [1, 8]: 15,500 (46.8) ng∙h/mL
Accumulation ratio (Cmax), Geo mean (GeoCV%) [1, 8]: 3.38 (55.6)
Cmax, GeoMean (GeoCV%) [1, 8]: 831 (43.3) ng/mL
tmax, median (range) [1, 8]: 6.05 (3.00–6.07) hours
AUC0–τ, Geo mean (GeoCV%) [1, 9]: 23,700 (43.7) ng∙h/mL
Accumulation ratio (Cmax), Geo mean (GeoCV%) [1, 9]: 2.40 (36.8)
Cmax, GeoMean (GeoCV%) [1, 9]: 1300 (45.1) ng/mL
tmax, median (range) [1, 9]: 4.08 (1.93–6.00) hours
AUC0–τ, Geo mean (GeoCV%) [1, 10]: 28,400 (91.6) ng∙h/mL
Accumulation ratio (Cmax), Geo mean (GeoCV%) [1, 10]: 3.21 (63.5)
Cmax, GeoMean (GeoCV%) [1, 10]: 1520 (100.8) ng/mL
tmax, median (range) [1, 10]: 3.77 (3.50–4.05) hours
AUC0–τ, Geo mean (GeoCV%) [1, 11]: 31,300 (55.8) ng∙h/mL
Accumulation ratio (Cmax), Geo mean (GeoCV%) [1, 11]: 2.51 (77.8)
Cmax, GeoMean (GeoCV%) [1, 11]: 1920 (48.5) ng/mL
tmax, median (range) [1, 11]: 4.00 (2.95–6.10) hours
AUC0–τ, Geo mean (GeoCV%) [1, 12]: 39,700 (52.3) ng∙h/mL
Accumulation ratio (Cmax), Geo mean (GeoCV%) [1, 12]: 2.12 (67.9)
Cmax, GeoMean (GeoCV%) [1, 12]: 2110 (39.6) ng/mL
tmax, median (range) [1, 12]: 5.48 (3.57–6.08) hours
AUC0–τ, Geo mean (GeoCV%) [1, 13]: 41,400 (34.5) ng∙h/mL
Accumulation ratio (Cmax), Geo mean (GeoCV%) [1, 13]: 2.20 (97.9)
Cmax, GeoMean (GeoCV%) [1, 13]: 2490 (9.4) ng/mL
tmax, median (range) [1, 13]: 2.50 (2.00–3.00) hours
Area under the curve on day 15 ([1]; highest doses of 240–380 mg): > 30,000 ng h/mL
Pharmacokinetic profile combined with tamoxifen versus monotherapy ([1]; in vivo): similar
Accumulation on day 15 after repeated doses ([1]; monotherapy): 2.12–3.38 fold
Apparent oral clearance (CL/f) ([1]; monotherapy): ~ 6 L/h
Terminal half-life ([1]; monotherapy): ~ 30 h
Median time to maximum plasma concentration (tmax) ([1]; monotherapy, across doses): 3.08 to 6.28 h
Dose proportionality of M2698 exposure ([1]; monotherapy, single and multiple administrations): exposure increased proportionally with dose
M2698 exposure in combination with trastuzumab ([1]; versus monotherapy): relatively higher
AUC0-∞ (90% CI) [2, 14]: 40016.18 (22818.47–70175.36) ng.h/mL
Cmax (90% CI) [2, 14]: 769.04 (410.14–1441.99) ng/mL
AUC0-∞ (90% CI) ([2]; Fed, single dose of 240 mg, n=7): 38626.33 (21989.80–67849.37) ng.h/mL
Cmax (90% CI) ([2]; Fed, single dose of 240 mg, n=8): 934.92 (498.61–1753.02) ng/mL
Food effect on the exposure of M2698 ([2]; in vivo): no apparent food effect
Cmax Fed/fasted ratio (90% CI) ([2]; single dose of 240 mg, p=0.3917): 1.2157 (0.8058–1.8341) p=0.3917
AUC0-∞ Fed/fasted ratio (90% CI) ([2]; single dose of 240 mg, p=0.6504): 0.9653 (0.8326–1.1191) p=0.6504
Changes in mean electrocardiogram data ([3]; across all cohorts): no clinically relevant changes
Correlation between exposure and fasting glucose levels ([3]; in vivo): no correlation
Additive RSV (residual variability), population PK estimate [4]: 3.44
Proportional RSV (residual variability), population PK estimate [4]: 0.163
Blood–brain barrier crossing [5]: capacity to cross the blood–brain barrier
EC50, PK/PD model of pS6 in PBMCs (plasma concentration for 50% inhibition) ([6]; NONMEM estimate): 1643 ng/mL
Emax, PK/PD model of pS6 in PBMCs ([6]; NONMEM estimate): 0.148
Inhibition of pS6 levels in PBMCs ([6]; in vivo): dose- and concentration-dependent inhibition
ALB on Vc, population PK estimate [7]: 0.0247
BSA on Vc, population PK estimate [7]: 1.17
CL (clearance), population PK estimate [7]: 7.06 L/h
KA (absorption rate constant), population PK estimate [7]: 2.02 h⁻¹
Q (flow rate), population PK estimate [7]: 18.0 L/h
Vc (volume of distribution of the central compartment), population PK estimate [7]: 292 L
Vp (volume of distribution of the peripheral compartment), population PK estimate [7]: 53.0 L
